Like-named read-outs stand apart in the source and are kept apart here.
Legend:
M.HhaI [1] = molecular target: T1, M.HhaI (Haemophilus parahaemolyticus, UniProt P05102); assay: M.HhaI-catalysed coupling of biotinylated aziridine cofactors with duplex oligodeoxynucleotide I-II (anion exchange HPLC); format: biochemical, Haemophilus haemolyticus; conditions: for conversion of duplex I-II to coupling product (protein-DNA complex): cofactor 80 μM, duplex I-II 10 μM, M.HhaI 11 μM, 37° C., after 3 h (1), 1.5 h (2), 6.25 h (3)
Procedure: Solutions (400 μL) of aziridine cofactor 1, 2 or 3 (32 nmol, 80 μM), duplex oligodeoxynucleotide I-II (4 nmol, 10 μM) and M.HhaI (4.4 nmol, 11 μM) in buffer (10 mM Tris hydrochloride, pH 7.4, 50 mM sodium chloride, 0.05 mM ethylene-diaminetetraacetic acid and 2 mM β-mercaptoethanol) were incubated at 37° C. The progress of the coupling reactions was monitored by anion exchange HPLC (Poros 10 HQ, 10 μm, 4.6×10 mm, Applied Biosystems). Compounds were eluted with aqueous potassium chloride (0.2 M for 5 min, followed by linear gradients to 0.4 M in 5 min, to 0.6 M in 20 min and to 1 M in 5 min) in Tris hydrochloride buffer (10 mM, pH 7.6) at a flow of 4 mL/min. […] These new compounds are assigned to non-covalent protein-DNA complexes between M.HhaI and the coupling products I^1-II, I^2-II and I^3-II based on their UV absorption ratio at 260 nm and 280 nm.
The presence and functionality of biotin groups in I^1-II, I^2-II and I^3-II were verified by addition of streptavidin. Residual aziridine cofactors 1, 2 or 3 were first removed from the labelled duplexes I^1-II, I^2-II or I^3-II by gel filtration using NAP-5 columns (Amersham Biosciences, Freiburg, Germany) according to the instructions of the supplier. Afterwards, streptavidin (25 μg) was added to the solutions (25 μL, 0.25 nmol I^1-II, I^2-II or I^3-II) and incubation was performed at 37° C. for 30 min.

M.HhaI [2] = molecular target: T1, M.HhaI; assay: Methylation-sensitive biotinylation of linearized pUC19 plasmid DNA with M.HhaI (R.HhaI protection, streptavidin mobility shift); format: biochemical, Haemophilus haemolyticus; conditions: cofactor 80 μM, 37° C. for 2 h, non- vs CpG-methylated LpUC19
Procedure: The reaction with aziridine cofactor 1 and M.HhaI was used to specifically detect DNA methylation of plasmid DNA (FIG. 2). Experiments were performed with R.XmnI-linearized plasmid pUC19 DNA (LpUC19). Cytosine residues within the 5′-CG-3′ DNA sequences (CpG-motives) of LpUC19 were methylated using the DNA (cytosine-5)-methyltransferase M.SssI and the natural cofactor AdoMet. Non- and CpG-methylated LpUC19 were treated with biotinylated aziridine cofactor 1 and M.HhaI, which can only alkylate the first cytosine residue within the 5′-GCGC-3′ DNA sequence if this residue is not blocked by methylation of the inner CpG-motive. The different plasmids where then analyzed by treatment with the restriction endo-nuclease R.HhaI (5′-GCGC-3′ recognition sequence) or streptavidin (tight binding to the biotin group) leading to fragmentation, no reaction or an electrophoretic mobility shift (FIG. 2A). […]
Samples (10 μL) of unmodified (A.), methylated (B. or C.) or biotinylated (C.) LpUC19 plasmid DNA (200 ng) in buffer (10 mM Tris hydrochloride, pH 7.9, 10 mM magnesium chloride, 50 mM sodium chloride, 1 mM 1,4-dithiothreitol and 1 mg/mL bovine serum albumin) were incubated with R.HhaI (2 U) at 37° C. for 1 h. DNA fragmentation was analyzed by agarose gel electrophoresis (1% agarose gel). […]

M.SssI = molecular target: T2, M.SssI (Spiroplasma monobiae, UniProt P15840); assay: M.SssI-catalysed coupling of aziridine cofactors with duplex oligodeoxynucleotides (anion exchange HPLC); format: biochemical
T2 construct: made in house; host or cells: Escherichia coli
Procedure: M.SssI-mediated conversion of 6BAz was studied by using a duplex-oligodeoxynucleotide and purified DNA-methyl-transferase. After adjusting and optimizing the reaction conditions (pH and composition of the puffers, temperature, amount of M.SssI) 60% of a hemi-methylated duplex-oligodeoxynucleotide was labelled in a 2 h reaction. When unmethylated duplex-oligodeoxynucleotides were used, approximately 100% was labelled. These diverging results may be due to the presence of minor amounts of natural cofactor AdoMet in the enzyme preparation.
Solutions of hemi-methylated duplex oligodeoxynucleotide I-II (1 μM, I=5′-[…]-3′ (SEQ ID NO:1), II=5′-[…]-3′ with M=5-methyl-2′-deoxycytidine (SEQ ID NO:2)) or non-methylated duplex oligodeoxynucleotide I-III (1 μM, I=5′-[…]-3′ (SEQ ID NO:1), III=5′-[…]-3′ (SEQ ID NO:3)), aziridine cofactor 3 (100 μM) and M.SssI (2 μM) in buffer (10 mM Tris hydrochloride, pH 7.4, 50 mM sodium chloride, 10 mM ethylenediaminetetraacetic acid and 2 mM dithiothreitol) were incubated at 21° C. The progress of the coupling reactions was monitored by anion exchange HPLC (Poros 10 HQ, 10 μm, 4.6×100 mm, Applied Biosystems). Compounds were eluted with aqueous potassium chloride (0.2 M for 5 min, followed by linear gradients to 0.5 M in 5 min and to 1 M in 30 min) in Tris hydrochloride buffer (10 mM, pH 7.6) supplemented with sodium azide (1 mM) at a flow of 4 mL/min.

T1 sequence (P05102 whole entry): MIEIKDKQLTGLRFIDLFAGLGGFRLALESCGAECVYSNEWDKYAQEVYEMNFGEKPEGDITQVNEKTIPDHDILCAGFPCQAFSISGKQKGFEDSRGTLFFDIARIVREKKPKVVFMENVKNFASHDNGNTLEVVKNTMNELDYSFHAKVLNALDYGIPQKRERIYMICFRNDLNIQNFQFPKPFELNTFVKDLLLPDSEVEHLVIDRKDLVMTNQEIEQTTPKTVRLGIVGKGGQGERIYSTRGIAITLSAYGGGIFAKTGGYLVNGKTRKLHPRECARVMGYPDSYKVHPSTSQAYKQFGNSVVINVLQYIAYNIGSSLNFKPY
T2 sequence (P15840 whole entry): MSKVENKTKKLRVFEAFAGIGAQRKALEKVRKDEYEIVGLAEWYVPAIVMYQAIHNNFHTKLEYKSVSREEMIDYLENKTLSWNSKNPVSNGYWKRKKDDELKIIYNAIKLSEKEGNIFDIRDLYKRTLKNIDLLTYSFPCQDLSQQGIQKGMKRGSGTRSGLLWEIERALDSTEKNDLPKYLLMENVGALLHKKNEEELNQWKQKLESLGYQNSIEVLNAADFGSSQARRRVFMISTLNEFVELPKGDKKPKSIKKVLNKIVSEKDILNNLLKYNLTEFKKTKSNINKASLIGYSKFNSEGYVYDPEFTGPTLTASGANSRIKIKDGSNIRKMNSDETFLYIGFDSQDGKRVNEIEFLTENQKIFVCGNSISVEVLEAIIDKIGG

| Substance | substrate for M.HhaI (M.HhaI [1]) | conversion of duplex I-II to coupling product (protein-DNA complex) (M.HhaI [1]) | labelling reaction of LpUC19 plasmid DNA with M.HhaI (M.HhaI [2]) | cofactor use by M.SssI (transfer onto DNA) (M.SssI) | hemi-methylated duplex-oligodeoxynucleotide labelled (M.SssI; M.SssI, 2 h reaction, optimized conditions) [%] | unmethylated duplex-oligodeoxynucleotide labelled (M.SssI; M.SssI, optimized conditions) | conversion of non-methylated duplex I-III to protein-DNA complexes with coupling product (M.SssI; duplex I-III 1 μM, cofactor 100 μM, M.SssI 2 μM, 21° C., 3 h incubation) | conversion of starting duplex I-II to product duplex I^3-II (M.SssI; hemi-methylated duplex I-II 1 μM, cofactor 100 μM, M.SssI 2 μM, 21° C., 3 h) | cofactor use by M.SssI (transfer onto DNA) (M.SssI; listed as 6BAz) |
| --- | --- | --- | --- | --- | --- | --- | --- | --- | --- |
| 4-Amino-7-(5′-N-aziridinyl-5′-deoxy-β-D-ribofuranosyl)-5-[1″-(N″-biotinyl)-3″-aminoprop-1-ynyl]-7H-pyrrolo[2,3-d]pyrimidine [aziridine cofactor 2] | good substrates | almost complete conversion | – | – | – | – | – | – | – |
| 4-Amino-7-(5′-N-aziridinyl-5′-deoxy-β-D-ribofuranosyl)-5-[1″-(N″-biotinyl)-3″-aminopropyl]-7H-pyrrolo[2,3-d]pyrimidine [aziridine cofactor 1] | good substrates | almost complete conversion | sequence-specific and blocked by CpG-methylation | – | – | – | – | – | – |
| 5′-N-Aziridinyl-N6-[1″-(N″-biotinyl)-4″-aminobutyl]-5′-deoxyadenosine [aziridine cofactor 3] | good substrates | almost complete conversion | – | substrate for M.SssI | 60 | approximately 100% | almost complete conversion | about 60% | aziridin-cofactor for the DNA-MTase M.SssI |

— patent publication US8129106B2, “Sequence-specific detection of methylation in biomolecules” (priority 2004, dated 2012)
